Reference: patent US8394789B2, “(Dihydro)pyrrolo[2,1-α]isoquinolines” (MSD Oss B.V., priority 2008, dated 2013)
pEC50: −log10 of the molar value.

Experiments:
human FSH receptor = biological target: T1, human FSH receptor (Homo sapiens, UniProt P23945); test: hFSHRago (CHO luc): agonistic activity at the human FSH receptor expressed in CHO cells, CRE-luciferase reporter; format: cell-based; conditions: CHO cells stably transfected with human FSH receptor and CRE/luciferase reporter; 4 hours of incubation
T1 construct: expressed in transfected cells
T1 sequence (P23945 18-695): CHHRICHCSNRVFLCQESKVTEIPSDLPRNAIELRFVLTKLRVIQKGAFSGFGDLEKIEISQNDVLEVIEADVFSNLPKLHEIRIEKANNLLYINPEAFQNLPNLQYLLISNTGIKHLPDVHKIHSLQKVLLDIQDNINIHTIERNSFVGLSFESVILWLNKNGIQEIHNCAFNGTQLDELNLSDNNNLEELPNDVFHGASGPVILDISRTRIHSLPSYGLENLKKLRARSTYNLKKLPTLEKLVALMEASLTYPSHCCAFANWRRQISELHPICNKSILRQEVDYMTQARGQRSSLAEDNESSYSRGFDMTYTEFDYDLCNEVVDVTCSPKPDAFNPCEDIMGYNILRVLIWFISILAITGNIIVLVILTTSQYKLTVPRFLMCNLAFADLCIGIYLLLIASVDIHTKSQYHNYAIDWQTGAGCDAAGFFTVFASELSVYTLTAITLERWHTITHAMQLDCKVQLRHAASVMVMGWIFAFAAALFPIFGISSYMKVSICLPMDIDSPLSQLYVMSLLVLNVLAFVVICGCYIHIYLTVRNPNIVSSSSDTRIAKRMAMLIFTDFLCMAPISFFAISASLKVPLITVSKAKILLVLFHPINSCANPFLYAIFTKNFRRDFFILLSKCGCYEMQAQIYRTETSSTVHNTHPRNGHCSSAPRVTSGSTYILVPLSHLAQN
Description: The term EC50 means the concentration of the test compound that elicits half-maximal (50%) stimulation compared to the compound's maximally attainable effect. The values can be determined e.g. in a cell line transfected with a FSH receptor gene and cotransfected with a cAMP responsive element/promoter directing the expression of a reporter gene. Values can be determined using the software program such as MathIQ (version 2.0, ID Business Solutions Limited).
Agonistic activity of the compounds at the human FSH receptor was determined in Chinese Hamster Ovary (CHO) cells stably transfected with the human FSH receptor and cotransfected with a cAMP responsive element (CRE)/promoter directing the expression of a firefly luciferase reporter gene. […] Cells (7,500 cells/well of a 384 well plate) were incubated in Dulbecco' minimal essential F12 modified medium (Invitrogen), supplemented with 1 μg/ml bovine insulin, 5 μg/ml human apo-transferrin, 80 U/ml penicillin G and 80 μg/ml streptomycin with the test compounds (concentration between 0.0316 nM and 10.0 μM) in duplicate in a humidified atmosphere (95%) at 5-7% CO2 and 37° C. The final concentration of DMSO was 1%. After 4 hours of incubation, plates were allowed to adjust to room temperature for 1 hour. Then, Luclite (PerkinElmer) solution was added to the wells and cells were allowed to lyse for at least 1 hour at room temperature. Subsequently, luciferase activity was measured in a luminescence counter. The signal is expressed as counts per second (cps). The EC50 (concentration of the test compound that elicits half-maximal (50%) luciferase stimulation compared to the compound's maximally attainable effect) and efficacy values (maximal effect of the test compound as percentage of the maximal effect of recombinant human FSH) of the compounds were determined using the software program MathIQ (version 2.0, ID Business Solutions Limited).

Row | SMILES | pEC50 (human FSH receptor) | melting point
1 | COc1cc2c(cc1OC(C)C)-c1c(-c3cccs3)cc(C(=O)N3CCCN(C(C)=O)CCC3)n1CC2 [Example 16, 1-[5-(9-Isopropoxy-8-methoxy-1-thiophen-2-yl-5,6-dihydro-pyrrolo[2,1-α]isoquinoline-3-carbonyl)-[1,5]diazocan-1-yl]-ethanone] | 8.30 | 153 to 155 °C
2 | COCC(=O)Nc1cc2c(cc1OC)CCn1c(C(=O)N(C)C(C)(C)C)cc(-c3cccs3)c1-2 [Example 98, 8-Methoxy-9-(2-methoxy-acetylamino)-1-thiophen-2-yl-5,6-dihydro-pyrrolo[2,1-α]isoquinoline-3-carboxylic acid tert-butyl-methyl-amide] | 8.85 | –
3 | CCOC(=O)Nc1cc2c(cc1OC)CCn1c(C(=O)N3CCCC3(C)C)cc(-c3cccs3)c1-2 [Example 99, [3-(2,2-Dimethyl-pyrrolidine-1-carbonyl)-8-methoxy-1-thiophen-2-yl-5,6-dihydro-pyrrolo[2,1-α]isoquinolin-9-yl]-carbamic acid ethyl ester] | 7.66 | –
4 | COc1cc2c(cc1NS(C)(=O)=O)-c1c(-c3cccs3)cc(C(=O)N3CCCC3(C)C)n1CC2 [Example 100, N-[3-(2,2-Dimethyl-pyrrolidine-1-carbonyl)-8-methoxy-1-thiophen-2-yl-5,6-dihydro-pyrrolo[2,1-α]isoquinolin-9-yl]-methanesulfonamide] | 9.00 | –
5 | COc1cc2c(cc1NC(=O)CN1CCOCC1)-c1c(-c3cccs3)cc(C(=O)N3CCCC3(C)C)n1CC2 [Example 101, N-[3-(2,2-Dimethyl-pyrrolidine-1-carbonyl)-8-methoxy-1-thiophen-2-yl-5,6-dihydro-pyrrolo[2,1-α]isoquinolin-9-yl]-2-morpholin-4-yl-acetamide] | 8.70 | –
6 | CN(C(=O)c1cc(-c2cccs2)c2n1CCc1ccc(NS(=O)(=O)N(C)C)cc1-2)C(C)(C)C [Example 103, 9-Dimethylaminosulfonylamino-1-thiophen-2-yl-5,6-dihydro-pyrrolo[2,1-α]isoquinoline-3-carboxylic acid tert-butyl-methyl-amide] | 6.12 | –
7 | COc1cc2c(cc1OC)-c1c(-c3cccs3)cc(C(=O)N3CCCN(C(=O)C4(C)CCC4)CC3)n1CC2 [Example 104, (8,9-Dimethoxy-1-thiophen-2-yl-5,6-dihydro-pyrrolo[2,1-α]isoquinolin-3-yl)-[4-(1-methyl-cyclobutanecarbonyl)-[1,4]diazepan-1-yl]-methanone] | 8.52 | –
8 | COc1cc2c(cc1OC)-c1c(-c3cccs3)cc(C(=O)N3CCC[C@H](NC(=O)C4CCC4)C3)n1CC2 [Example 105, Cyclobutanecarboxylic acid [(S)-1-(8,9-dimethoxy-1-thiophen-2-yl-5,6-dihydro-pyrrolo[2,1-α]isoquinoline-3-carbonyl)-piperidin-3-yl]-amide] | 5.76 | –
9 | COc1cc2c(cc1OC)-c1c(-c3cccs3)cc(C(=O)N3CC[C@@H](NC(=O)N(C)C)C3)n1CC2 [Example 106, 3-[(R)-1-(8,9-Dimethoxy-1-thiophen-2-yl-5,6-dihydro-pyrrolo[2,1-α]isoquinoline-3-carbonyl)-pyrrolidin-3-yl]-1,1-dimethyl-urea] | 6.12 | –
10 | COc1cc2c(cc1OC)-c1c(-c3cccs3)cc(C(=O)N3CCC[C@@H](N(C)C(C)=O)C3)n1CC2 [Example 107, N-[(R)-1-(8,9-Dimethoxy-1-thiophen-2-yl-5,6-dihydro-pyrrolo[2,1-α]isoquinoline-3-carbonyl)-piperidin-3-yl]-N-methyl-acetamide] | 7.51 | –
11 | COc1cc2c(cc1OC)-c1c(Br)cc(C(=O)O)n1CC2 [Example 108b] | 7.00 | –
12 | COc1cc2c(cc1OC)-c1c(Br)cc(C(=O)N3CCCN(C(=O)C4CCC4)CC3)n1CC2 [Example 108c] | 7.00 | –
13 | C#Cc1cc(C(=O)N2CCCN(C(=O)c3ccccc3)CC2)n2c1-c1cc(OC)c(OC)cc1CC2 [Example 109, (4-Benzoyl-[1,4]diazepan-1-yl)-(1-ethynyl-8,9-dimethoxy-5,6-dihydro-pyrrolo[2,1-α]isoquinolin-3-yl)-methanone] | 7.12 | –
14 | COc1cc2c(cc1OC)-c1c(C3=CCCCC3)cc(C(=O)N(C)C(C)(C)C)n1CC2 [Example 110, 1-Cyclohex-1-enyl-8,9-dimethoxy-5,6-dihydro-pyrrolo[2,1-α]isoquinoline-3-carboxylic acid tert-butyl-methyl-amide] | 7.12 | –
15 | COc1cc2c(cc1OC)-c1c(-c3cccs3)cc(C(=O)N3CCCN(C(=O)C4CCC4)CC3)n1CC2 [Example 111a, (4-Cyclobutanecarbonyl-[1,4]diazepan-1-yl)-(8,9-dimethoxy-1-thiophen-2-yl-5,6-dihydro-pyrrolo[2,1-α]isoquinolin-3-yl)-methanone] | 8.54 | –
16 | COc1cc2ccn3c(C(=O)N4CCCN(C(=O)C5CCC5)CC4)cc(-c4cccs4)c3c2cc1OC [Example 111b, (4-Cyclobutanecarbonyl-[1,4]diazepan-1-yl)-(8,9-dimethoxy-1-thiophen-2-yl-pyrrolo[2,1-α]isoquinolin-3-yl)-methanone] | 8.31 | –
17 | CCOc1cc2c(cc1OC)CCn1c(C(=O)N(CC)C(C)C)c(C(C)=O)c(-c3cccs3)c1-2 [Example 112, 2-Acetyl-9-ethoxy-8-methoxy-1-thiophen-2-yl-5,6-dihydro-pyrrolo[2,1-α]isoquinoline-3-carboxylic acid ethyl-isopropyl-amide] | 6.70 | –
18 | COc1cc2c(cc1OC(F)F)-c1c(-c3nccs3)cc(C(=O)N(C)C(C)(C)C)n1CC2 [Example 113, 9-Difluoromethoxy-8-methoxy-1-thiazol-2-yl-5,6-dihydro-pyrrolo[2,1-α]isoquinoline-3-carboxylic acid tert-butyl-methyl-amide] | 7.40 | –
19 | CCN(C(=O)c1cc(-c2cccs2)c2n1CCc1c-2cc(OC)c(OC)c1C)C(C)C [Example 114, 8,9-Dimethoxy-7-methyl-1-thiophen-2-yl-5,6-dihydro-pyrrolo[2,1-α]isoquinoline-3-carboxylic acid ethyl-isopropyl-amide] | 6.49 | –
20 | CCN(C(=O)c1cc(-c2cccs2)c2n1CCc1c-2cc(OC)c(OC)c1F)C(C)C [Example 115, 7-Fluoro-8,9-dimethoxy-1-thiophen-2-yl-5,6-dihydro-pyrrolo[2,1-α]isoquinoline-3-carboxylic acid ethyl-isopropyl-amide] | 6.03 | –
21 | CCN(C(=O)c1cc(-c2ccsc2)c2n1CCc1cc(OC)c(OC)c(F)c1-2)C(C)C [Example 116, 10-Fluoro-8,9-dimethoxy-1-thiophen-3-yl-5,6-dihydro-pyrrolo[2,1-α]isoquinoline-3-carboxylic acid ethyl-isopropyl-amide] | 6.50 | –
22 | CCN(C(=O)c1cc(-c2ccsc2)c2n1CCc1cc(Br)c(OC)cc1-2)C(C)C [Example 117, 8-Bromo-9-methoxy-1-thiophen-3-yl-5,6-dihydro-pyrrolo[2,1-α]isoquinoline-3-carboxylic acid ethyl-isopropyl-amide] | 5.96 | –
23 | COc1cc2c(cc1OC)-c1c(-c3ccc(F)cc3F)cc(C(=O)N(C)C(C)(C)C)n1CC2 [Example 118, 1-(2,4-Difluoro-phenyl)-8,9-dimethoxy-5,6-dihydro-pyrrolo[2,1-α]isoquinoline-3-carboxylic acid tert-butyl-methyl-amide] | 7.32 | –
24 | CCOC(=O)CN(C)C(=O)c1cc(-c2ccsc2)c2n1CCc1cc(OC)c(OC)cc1-2 [Example 119c, [(8,9-Dimethoxy-1-thiophen-3-yl-5,6-dihydro-pyrrolo[2,1-α]isoquinoline-3-carbonyl)-methyl-amino]-acetic acid ethyl ester] | 7.38 | –
25 | COc1cc2c(cc1OC)-c1c(-c3ccsc3)cc(C(=O)N(C)CC(=O)N(C)CC(C)C)n1CC2 [Example 119e, 8,9-dimethoxy-1-thiophen-3-yl-5,6-dihydro-pyrrolo[2,1-α]isoquinoline-3-carboxylic acid [(isobutyl-methyl-carbamoyl)-methyl]-methyl-amide] | 5.97 | –
26 | COc1cc2c(c(OC)c1)-c1c(-c3ccsc3)cc(C(=O)N(C)C(C)(C)C)n1CC2 [Example 120, 8,10-Dimethoxy-1-thiophen-3-yl-5,6-dihydro-pyrrolo[2,1-α]isoquinoline-3-carboxylic acid tert-butyl-methyl-amide] | 6.16 | –
27 | COc1cc2c(cc1CO)-c1c(-c3cccs3)cc(C(=O)N(C)C(C)(C)C)n1CC2 [Example 121a, 9-Hydroxymethyl-8-methoxy-1-thiophen-2-yl-5,6-dihydro-pyrrolo[2,1-α]isoquinoline-3-carboxylic acid tert-butyl-methyl-amide] | 8.00 | –
28 | COCc1cc2c(cc1OC)CCn1c(C(=O)N(C)C(C)(C)C)cc(-c3cccs3)c1-2 [Example 121b, 8-Methoxy-9-methoxymethyl-1-thiophen-2-yl-5,6-dihydro-pyrrolo[2,1-α]isoquinoline-3-carboxylic acid tert-butyl-methyl-amide] | 8.80 | –
29 | COc1cc2c(cc1C(C)=O)-c1c(-c3cccs3)cc(C(=O)N3CCCC3(C)C)n1CC2 [Example 122, 1-[3-(2,2-Dimethyl-pyrrolidine-1-carbonyl)-8-methoxy-1-thiophen-2-yl-5,6-dihydro-pyrrolo[2,1-α]isoquinolin-9-yl]-ethanone] | 8.70 | –
